# Measured values reported in patent US6737383B1, “Herbicidal oxadiazolidines” (priority 1999, dated 2004).
# Legend:
# bamyardgrass = experiment: Test B flood test barnyardgrass; format: in vivo, Echinochloa crus-galli
# Outline: (§1)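 Read-out is a visual response score from 0 (no effect) to 10 (complete control), assigned by comparison with untreated controls. Treatment was applied at the 2-leaf stage, and plants stayed in the greenhouse for twelve to sixteen days before scoring.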
# wild oat = experiment: Test B pre/postemergence wild oat; format: in vivo, Avena fatua
# Outline: (§2)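 Test chemicals in a non-phytotoxic solvent mixture with surfactant were sprayed preemergence onto planted seeds and postemergence onto plants 2 to 18 cm tall (1- to 4-leaf stage). After twelve to sixteen days in a greenhouse, injury was visually rated against untreated controls from 0 (no effect) to 10 (complete control).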
# wheat = experiment: Test B pre/postemergence wheat; format: in vivo, Triticum aestivum
# Outline: as §2
# corn = experiment: Test B pre/postemergence corn; format: in vivo, Zea mays
# Outline: as §2
# crabgrass = experiment: Test B pre/postemergence crabgrass; format: in vivo, Digitaria sanguinalis
# Outline: as §2
# smallflower flatsedge = experiment: Test B flood test smallflower flatsedge; format: in vivo, Cyperus difformis
# Outline: as §1
# surinam grass = experiment: Test B pre/postemergence surinam grass; format: in vivo, Brachiaria decumbens
# Outline: as §2
# cocklebur = experiment: Test B pre/postemergence cocklebur; format: in vivo, Xanthium strumarium
# Outline: as §2
# velvetleaf = experiment: Test B pre/postemergence velvetleaf; format: in vivo, Abutilon theophrasti
# Outline: as §2
# rape = experiment: Test B pre/postemergence rape; format: in vivo, Brassica napus
# Outline: as §2
# sugar beet = experiment: Test B pre/postemergence sugar beet; format: in vivo, Beta vulgaris
# Outline: as §2
# bedstraw = experiment: Test B pre/postemergence bedstraw; format: in vivo, Galium aparine
# Outline: as §2
# soybean = experiment: Test B pre/postemergence soybean; format: in vivo, Glycine max
# Outline: as §2
# blackgrass = experiment: Test B pre/postemergence blackgrass; format: in vivo, Alopecurus myosuroides
# Outline: as §2
# pigweed = experiment: Test B pre/postemergence pigweed; format: in vivo, Amaranthus retroflexus
# Outline: as §2
# purple nutsedge = experiment: Test B pre/postemergence purple nutsedge; format: in vivo, Cyperus rotundus
# Outline: as §2
# [1] = Postemergence (flood test species), Rate 125 g/ha, scale of 0 to 10 where 0 is no effect and 10 is complete control
# [2] = Rate 62 g/ha, Postemergence section, flood test species, scale of 0 to 10 where 0 is no effect and 10 is complete control
# [3] = Rate 250 g/ha, Postemergence (flood test), scale 0 to 10, 0 is no effect, 10 is complete control
# [4] = Postemergence, Rate 125 g/ha, scale of 0 to 10 where 0 is no effect and 10 is complete control
# [5] = Preemergence, Rate 62 g/ha, scale 0 to 10 (0 no effect, 10 complete control)
# [6] = Preemergence, Rate 125 g/ha, 0 is no effect, 10 is complete control
# [7] = Preemergence, Rate 250 g/ha, scale 0 to 10, 0 is no effect, 10 is complete control
# [8] = Preemergence, Rate 500 g/ha, scale 0 to 10 (0 no effect, 10 complete control)
# [9] = Rate 62 g/ha, Postemergence, scale of 0 to 10 where 0 is no effect and 10 is complete control
# [10] = Rate 250 g/ha, Postemergence, scale 0 to 10, 0 is no effect, 10 is complete control
# [11] = Rate 500 g/ha, Postemergence, scale 0 to 10
smiles,measurement,setting,value
CC(C)N(C(=O)n1oc(=O)n(CCCl)c1=O)c1ccc(F)cc1 [Compound 148],Barnyardgrass plant response rating,bamyardgrass; [1],0
same,Barnyardgrass plant response rating,bamyardgrass; [2],0
same,"Plant response rating, Barnyardgrass",bamyardgrass; [3],0
same,Barnyardgrass plant response rating,"bamyardgrass; Rate 500 g/ha, listed under Postemergence (flood test species), scale 0 to 10, 0 no effect, 10 complete control",4
same,Wild oats plant response rating,wild oat; [4],1
same,Wild oats plant response rating,wild oat; [5],6
same,Wild oats plant response rating (0 to 10 scale),wild oat; [6],6
same,Wild oats plant response rating,wild oat; [7],6
same,Wild oats plant response rating,wild oat; [8],8
same,Wild oats plant response rating,wild oat; [9],0
same,"Plant response rating, Wild oats",wild oat; [10],5
same,Wild oats plant response rating,wild oat; [11],5
same,Wheat plant response rating,wheat; [4],1
same,Wheat plant response rating,wheat; [5],0
same,Wheat plant response rating (0 to 10 scale),wheat; [6],3
same,Wheat plant response rating,wheat; [7],3
same,Wheat plant response rating,wheat; [8],6
same,Wheat plant response rating,wheat; [9],0
same,"Plant response rating, Wheat",wheat; [10],3
same,Wheat plant response rating,wheat; [11],5
same,Corn plant response rating,corn; [4],0
same,Corn plant response rating,corn; [5],0
same,Corn plant response rating (0 to 10 scale),corn; [6],0
same,Corn plant response rating,corn; [7],0
same,Corn plant response rating,corn; [8],0
same,Corn plant response rating,corn; [9],0
same,"Plant response rating, Corn",corn; [10],0
same,Corn plant response rating,corn; [11],0
same,Crabgrass plant response rating,crabgrass; [4],8
same,Crabgrass plant response rating,crabgrass; [5],5
same,Crabgrass plant response rating (0 to 10 scale),crabgrass; [6],8
same,Crabgrass plant response rating,crabgrass; [7],9
same,Crabgrass plant response rating,crabgrass; [8],9
same,Crabgrass plant response rating,crabgrass; [9],8
same,"Plant response rating, Crabgrass",crabgrass; [10],8
same,Crabgrass plant response rating,crabgrass; [11],9
same,S. Flatsedge plant response rating,smallflower flatsedge; [1],0
same,S. Flatsedge plant response rating,smallflower flatsedge; [2],0
same,"Plant response rating, S. Flatsedge",smallflower flatsedge; [3],0
same,S. Flatsedge plant response rating,"smallflower flatsedge; Rate 500 g/ha, listed under Postemergence (flood test species), scale 0 to 10",2
same,B. signalgrass plant response rating,surinam grass; [4],3
same,B. signalgrass plant response rating,surinam grass; [5],0
same,B. signalgrass plant response rating (0 to 10 scale),surinam grass; [6],5
same,B. signalgrass plant response rating,surinam grass; [7],7
same,B. signalgrass plant response rating,surinam grass; [8],7
same,B. signalgrass plant response rating,surinam grass; [9],0
same,"Plant response rating, B. signalgrass",surinam grass; [10],5
same,B. signalgrass plant response rating,"surinam grass; Rate 500 g/ha, Postemergence, scale of 0 to 10 where 0 is no effect and 10 is complete control",7
same,Cocklebur plant response rating,cocklebur; [4],0
same,Cocklebur plant response rating (0 to 10 scale),cocklebur; [6],0
same,Cocklebur plant response rating,cocklebur; [7],0
same,Cocklebur plant response rating,cocklebur; [8],0
same,Cocklebur plant response rating,cocklebur; [9],0
same,"Plant response rating, Cocklebur",cocklebur; [10],0
same,Cocklebur plant response rating,cocklebur; [11],3
same,Velvetleaf plant response rating,velvetleaf; [4],0
same,Velvetleaf plant response rating,velvetleaf; [5],0
same,Velvetleaf plant response rating (0 to 10 scale),velvetleaf; [6],6
same,Velvetleaf plant response rating,velvetleaf; [7],8
same,Velvetleaf plant response rating,velvetleaf; [8],8
same,Velvetleaf plant response rating,velvetleaf; [9],0
same,"Plant response rating, Velvetleaf",velvetleaf; [10],0
same,Velvetleaf plant response rating,velvetleaf; [11],1
same,Rape plant response rating,rape; [4],2
same,Rape plant response rating,rape; [5],0
same,Rape plant response rating (0 to 10 scale),rape; [6],0
same,Rape plant response rating,rape; [7],6
same,Rape plant response rating,rape; [8],9
same,Rape plant response rating,rape; [9],1
same,"Plant response rating, Rape",rape; [10],3
same,Rape plant response rating,rape; [11],4
same,Sugarbeets plant response rating,sugar beet; [4],3
same,Sugarbeets plant response rating,sugar beet; [5],4
same,Sugarbeets plant response rating (0 to 10 scale),sugar beet; [6],6
same,Sugarbeets plant response rating,sugar beet; [7],8
same,Sugarbeets plant response rating,sugar beet; [8],10
same,Sugarbeets plant response rating,sugar beet; [9],2
same,"Plant response rating, Sugarbeets",sugar beet; [10],4
same,Sugarbeets plant response rating,sugar beet; [11],4
same,Bedstraw plant response rating,bedstraw; [4],5
same,Bedstraw plant response rating,bedstraw; [5],0
same,Bedstraw plant response rating (0 to 10 scale),bedstraw; [6],0
same,Bedstraw plant response rating,bedstraw; [7],0
same,Bedstraw plant response rating,bedstraw; [8],2
same,Bedstraw plant response rating,bedstraw; [9],2
same,"Plant response rating, Bedstraw",bedstraw; [10],6
same,Bedstraw plant response rating,"bedstraw; Rate 500 g/ha, Postemergence, scale 0 to 10, 0 no effect, 10 complete control",6
same,Soybean plant response rating,soybean; [4],4
same,Soybean plant response rating,soybean; [5],0
same,Soybean plant response rating (0 to 10 scale),soybean; [6],0
same,Soybean plant response rating,soybean; [7],0
same,Soybean plant response rating,soybean; [8],0
same,Soybean plant response rating,soybean; [9],4
same,"Plant response rating, Soybean",soybean; [10],4
same,Soybean plant response rating,soybean; [11],5
same,Blackgrass plant response rating,blackgrass; [4],7
same,Blackgrass plant response rating,blackgrass; [5],4
same,Blackgrass plant response rating (0 to 10 scale),blackgrass; [6],4
same,Blackgrass plant response rating,blackgrass; [7],7
same,Blackgrass plant response rating,blackgrass; [8],9
same,Blackgrass plant response rating,blackgrass; [9],5
same,"Plant response rating, Blackgrass",blackgrass; [10],7
same,Blackgrass plant response rating,blackgrass; [11],7
same,Redroot pigweed plant response rating,pigweed; [4],2
same,Redroot pigweed plant response rating,pigweed; [5],7
same,Redroot pigweed plant response rating (0 to 10 scale),pigweed; [6],9
same,Redroot pigweed plant response rating,pigweed; [7],9
same,Redroot pigweed plant response rating,pigweed; [8],10
same,Redroot pigweed plant response rating,pigweed; [9],2
same,Redroot pigweed plant response rating,pigweed; [11],5
same,Nutsedge plant response rating,purple nutsedge; [4],0
same,Nutsedge plant response rating,purple nutsedge; [5],0
same,Nutsedge plant response rating (0 to 10 scale),purple nutsedge; [6],0
same,Nutsedge plant response rating,purple nutsedge; [7],0
same,Nutsedge plant response rating,purple nutsedge; [8],0
same,Nutsedge plant response rating,purple nutsedge; [9],0
same,"Plant response rating, Nutsedge",purple nutsedge; [10],0
same,Nutsedge plant response rating,purple nutsedge; [11],0
